The test system of experiment [1] is THP1 macrophage-like cells. As to the kind of experiment: COX2 expression by western blot. To be noted: Aspirin 200 μM with UBM hydrogel 0.5 mg/mL; 4, 8, 24 hours. Type of experiment: cell-based, human.
Procedure: Cells were then treated with UBM hydrogel for 4, 8, or 24 hours. At the specified time points, cells were washed extensively with 1× PBS and lysis buffer (50 mM Tris, 20 mM NaCl, 1% Triton X-100) was added. Cells were mechanically removed from the culture dish, transferred to centrifuge tubes and incubated on ice for 10 minutes. Lysates were spun down at 14000 rpm for 20 minutes at 4° C. to remove any debris. The clarified lysate was stored at −80° C. Lysates were diluted 1:1 in 2× Laemmli Sample Buffer (Bio-Rad, Hercules, CA) and boiled at 95° C. for 5 minutes. Samples were then resolved on 9% SDS-PAGE gels (National Diagnostics) and transferred to polyvinyldifluoride (PVDF, Millipore) membranes. Membranes were blocked with 1:1 Odyssey Blocking Buffer:1×PBS (Licor) overnight at 4° C. […]
For experiment [2], the system named is THP1 macrophage-like cells. As to the kind of experiment: Secreted factor analysis (ELISA). The class given is cell-based, human. The method, then:
THP-1 human monocytes were obtained from the American Tissue Culture Collection (ATCC, Manassas, VA) and maintained in RPMI, 10% FBS, 1% penicillin/streptomycin, 2 mM L-glutamine, and 1 mM sodium pyruvate in a humidified atmosphere at 37° C. with 5% CO2. For experiments, 500,000 THP-1 cells/mL were plated with 320 nM phorbol 12-myristate 13-acetate (PMA) for 24 hours to induce differentiation into macrophages. Adherent macrophages were washed in PBS and placed in fresh media, followed by a 24 hour incubation to acquiesce. […] Once cells were prepared as described above, aspirin (200 µM, where appropriate) was added for 1 hour. Subsequently, UBM hydrogel (0.5 mg/mL) or pepsin control buffer (0.05 mg/mL) was added and cells were allowed to incubate for 24-72 hours. After incubation, cells were pelleted by centrifugation (700×g, 5 minutes, 4° C.), and the culture supernatants were carefully removed. Supernatants were stored at -80° C. until the time of assay. Secreted factor concentrations in the culture supernatants were determined using commercially available ELISA kits (PGE2, PGF2α, ENZO Life Sciences) and IL-1RA (R&D Systems)) according to the manufacturer's instructions.
(In general: ELISA stands for enzyme-linked immunosorbent assay.)

A further experiment concerns brain derived microglia. Briefly: PGE2 secretion in primary microglia. The settings on record: UBM hydrogel 0.5 mg/mL 48 hours; inhibitor pre-treatment 1 hour. The class given is cell-based, rat. The procedure: Primary microglia from rats were obtained from postnatal day 3 rat pup brains as previously described ([…], Xiao X, Hart RP, Schwartz M. Protective autoimmunity: interferon-gamma enables microglia to remove glutamate without evoking inflammatory mediators. J Neurochem 2005;92(5):997-1009). Whole brains from postnatal day 3 Sprague Dawley rat pups (Charles River) were harvested and minced after removal of the brain stem, olfactory bulbs, and meninges. Tissue was digested for 15 min in 0.25% trypsin/EDTA at 37° C. […] The suspension was centrifuged, diluted in culture media (DMEM/F12, 10% FBS, 2 mM L-glutamine, 1% penicillin/streptomycin), and grown to confluence at 37° C./5% CO2. Culture media was replaced every 2-3 days. At day 11-12 in vitro, enriched microglia were obtained by mechanical agitation (orbital shaker, 150 rpm, 37 C) for 2 hours. The media was collected after the shake-off step and centrifuged (1400 rpm for 5 minutes). The cell pellet was resuspended in culture media (RPMI 1640, 10% FBS, 1 mM L-glutamine, 1 mM sodium pyruvate, 50 μM beta-mercaptoethanol, 1% penicillin and streptomycin) and cells were plated at a density of 500,000/mL. […] Secreted factor concentrations in the culture supernatants were determined using commercially available ELISA kits (PGE2, PGF2α, ENZO Life Sciences) and IL-1RA (R&D Systems)) according to the manufacturer's instructions.

The test system of the next experiment is C2C12 murine myoblasts. As to the kind of experiment: In vitro myogenesis, THP1/C2C12 transwell co-culture. The class given is cell-based. The method, then:
C2C12 murine myoblasts were obtained from ATCC and grown in complete media (DMEM, 10% FBS, 1% penicillin/streptomycin) at 37° C./5% CO2 according to the ATCC recommendations. Myoblasts were seeded at a density of 5,000 cells/cm^2 in 24 well plates and allowed proliferate to 90% confluence. Cells were then washed in 1×PBS and incubated in differentiation media (DMEM, 2% horse Serum, 1% penicillin/streptomycin) for 24 hours. Cells were washed in 1×PBS and placed in basal media (DMEM, 1% penicillin/streptomycin). A transwell insert (Corning) containing 100,000 differentiated THP1 cells (as described in section 2.9) in 200 μL of complete THP1 cell media was placed in each well. UBM hydrogel (0.5 mg/mL, final concentration) was then added to the THP1 transwell insert only. […] A standardized image capture system and quantitative analysis of in vitro myogenesis was performed as previously described (Goh […], Corbett J T, Pierre […], Pizza F X. Intercellular adhesion molecule-1 expression by skeletal muscle Cells Augments myogenesis. Exp Cell Res 2014). Briefly, custom macro functions (Image […]; Media Cybernetics Inc.) were used to objectively quantify several important myogenesis parameters (e.g., the number of nuclei, myotubes, and nuclei within a myotube). […] The fusion index was calculated by expressing the number of nuclei within myotubes as a percentage of total nuclei.

Setting [3] is: Aspirin 200 μM with UBM hydrogel 0.5 mg/mL, 48 hours.

As for `CC(=O)Oc1ccccc1C(=O)O` [Aspirin], in experiment [1], the “change in COX2 expression” value was “did not cause any changes in COX2 expression”. In experiment [2] (setting [3]), the IL-1RA secretion result was “did not cause any significant drop in IL-1RA secretion”. In experiment [2] (setting [3]), the “production of PGE2 and PGF2α” value is “reduced production of both PGE2 and PGF2α down to basal levels”. Moreover, the PGE2 production entry in experiment [2] (THP1, UBM hydrogel 0.5 mg/mL 48 hours, inhibitor pre-treatment 1 hour) is “reduced PGE2 production to baseline levels”; in the experiment on brain derived microglia it was “reduced PGE2 production to baseline levels”. In addition, in the experiment with C2C12 murine myoblasts (Aspirin 200 μM co-administered with UBM 0.5 mg/mL, 48 hours), the myogenesis metrics result is reported as “reduced these myogenesis metrics down to control levels”. The “reduction in fusion index” value in the experiment with C2C12 murine myoblasts (Aspirin with UBM, THP1/C2C12 co culture) is 92%.

Source of the values: US20250065017A1, “Fractionating Extracellular Matrix to Modulate Bioactivity and the Host Response” (University of Pittsburgh - Of the Commonwealth System of …, priority 2014, published 2025).
